These results are taken from patent US12404269B2, “Aminoquinazolinone and aminoisoquinolinone derivatives and application thereof” (ZHEJIANG UNIVERSITY, priority 2018, dated 2025).

Like-named read-outs stand apart in the source and are kept apart here.

Data set [1] has as its target T1, PI3Kδ (Homo sapiens, UniProt O00329).
T1 construct: purchased Carna Bioscience
Kind of data set: PI3Kδ molecular activity test (ADP-GLO). The data set is classed as biochemical. The conditions noted are these: recombinant protein.

Data set [2] has as its system KPL4 (PIK3CA mut). Kind of data set: Tumor cell proliferation, CCK8 method, KPL4. The data set is classed as cell-based. The procedure:
(§1) The IC50 value was calculated using Graphpad Prism V5.0 software.
For orientation: Tetrazolium assays rely on reduction of a dye to a coloured formazan, in cell work by metabolically active cells.

Data set [3] concerns SW48 (PIK3CA mut). Description: Tumor cell proliferation, CCK8 method, SW48. The conditions noted are these: Homo sapiens. The data set is classed as cell-based. Here is the method: as §1
Data set [4] deals with ZR-75-1 (PTEN loss). Description: Tumor cell proliferation, CCK8 method, ZR-75-1. The data set is classed as cell-based. The conditions noted are these: Homo sapiens; CCK8, ZR-75-1. The procedure:
as §1

Data set [5] has as its target T2, PI3Kα (Homo sapiens, UniProt P42336).
T2 construct: purchased Carna Bioscience
Description: PI3Kα molecular activity test (ADP-GLO). The data set is classed as biochemical. The conditions noted are these: for Selectivity (PI3Kδ IC50/PI3KαIC50): PI3Kδ IC50/PI3Kα IC50; for IC50: recombinant protein, 100 μM ATP, 2 hours at room temperature. (In general: In ADP-Glo the light output rises with the ADP produced.)

In data set [6] the test system is MCF7 (PIK3CA mut). Description: Tumor cell proliferation, CCK8 method, MCF7. The data set is classed as cell-based, human. The conditions noted are these: Homo sapiens. The procedure: as §1
Data set [7] deals with Kasumi-1 cell line. Description: In vivo efficacy, Kasumi-1 subcutaneous transplanted tumor in nude mice. The conditions noted are these: 10 mg/Kg qd for 21 days, Kasumi-1 tumor, female nude mice, FIG. 1. Here is the method:
Female nude mice, weighing 20±3 g, were inoculated subcutaneously with Kasumi-1 cell line in their right axilla. The cell inoculation accounted for 1×10^7/mouse. After tumor formation, the diameter of the transplanted tumor was measured with a vernier caliper. When the tumor grown to 100-300 mm^3, the animals were divided into a model control group and administration groups with 6 […] in each group depending on body weight and tumor volume. The model control group was given the same amount of blank solvent. After grouping, the drugs were administered daily (qd) with a doge of 10 mg/Kg for 21 consecutive days. During the experiment, the diameter of the transplanted tumor and the weight of the mice were measured twice a week. The calculation formula of the tumor volume (TV) was: TV=½×a×b^2, where a and b represented length and width respectively. The relative tumor volume (RTV) was calculated from the measurement results, the calculation formula was: RTV=Vt/V0, where V0 was the tumor volume measured as grouping and administering (i.e. d0), and Vt was the tumor volume at each measurement. The evaluation index of anti-tumor activity was the relative tumor proliferation rate T/C(%), and the calculation formula was as follows: T/C(%)=(TRTV/CRTV)×100%, where TRTV: RTV of the treatment group; and CRTV: RTV of the negative control group.

The conditions of data set [8]: background; cited from earlier work.
The nature of data set [9]: Pharmacokinetic determination in SD rats, tail vein injection. The data set is classed as in vivo. The conditions noted are these: rat, plasma; male SD rats, intravenous, 1 mg/kg. Here is the method: Healthy SD rats weighing 200±20 g, male, were randomly divided into groups with 6 rats in each group, and were administered by tail vein injection at a dose of 1 mg/kg. The blood sampling time points for pharmacokinetic analysis: 5 min, 15 min, 30 min, 2 h, 4 h, 6 h, 8 h, 24 h, and 48 h after administration. About 0.3 mL of whole blood was collected via the orbit and placed in a heparinized test tube, centrifugalized at 6000 rpm for 10 min to separate the plasma, and store at −80° C. for testing. The plasma concentrations of the each compounds were detected with an Agilent liquid mass spectrometry (LC-MS/MS, Agilent Jet Stream Electrometric spray ion), and the relevant pharmacokinetic parameters were calculated using the WinNonLin 7.0 pharmacokinetic software non-compartment model method.

For data set [10] the following is noted: CLL patients, background; cited from earlier work.
The mark [11] stands for this setting: CCK8, KPL4, read-out: KPL4 (PIK3CA mut) proliferation IC50.
[12] abbreviates: CCK8, SW48, read-out: SW48 (PIK3CA mut) proliferation IC50.
Where [13] appears, read: CCK8, MCF7, read-out: MCF7 (PIK3CA mut) proliferation IC50.

T2 sequence (P42336 whole entry): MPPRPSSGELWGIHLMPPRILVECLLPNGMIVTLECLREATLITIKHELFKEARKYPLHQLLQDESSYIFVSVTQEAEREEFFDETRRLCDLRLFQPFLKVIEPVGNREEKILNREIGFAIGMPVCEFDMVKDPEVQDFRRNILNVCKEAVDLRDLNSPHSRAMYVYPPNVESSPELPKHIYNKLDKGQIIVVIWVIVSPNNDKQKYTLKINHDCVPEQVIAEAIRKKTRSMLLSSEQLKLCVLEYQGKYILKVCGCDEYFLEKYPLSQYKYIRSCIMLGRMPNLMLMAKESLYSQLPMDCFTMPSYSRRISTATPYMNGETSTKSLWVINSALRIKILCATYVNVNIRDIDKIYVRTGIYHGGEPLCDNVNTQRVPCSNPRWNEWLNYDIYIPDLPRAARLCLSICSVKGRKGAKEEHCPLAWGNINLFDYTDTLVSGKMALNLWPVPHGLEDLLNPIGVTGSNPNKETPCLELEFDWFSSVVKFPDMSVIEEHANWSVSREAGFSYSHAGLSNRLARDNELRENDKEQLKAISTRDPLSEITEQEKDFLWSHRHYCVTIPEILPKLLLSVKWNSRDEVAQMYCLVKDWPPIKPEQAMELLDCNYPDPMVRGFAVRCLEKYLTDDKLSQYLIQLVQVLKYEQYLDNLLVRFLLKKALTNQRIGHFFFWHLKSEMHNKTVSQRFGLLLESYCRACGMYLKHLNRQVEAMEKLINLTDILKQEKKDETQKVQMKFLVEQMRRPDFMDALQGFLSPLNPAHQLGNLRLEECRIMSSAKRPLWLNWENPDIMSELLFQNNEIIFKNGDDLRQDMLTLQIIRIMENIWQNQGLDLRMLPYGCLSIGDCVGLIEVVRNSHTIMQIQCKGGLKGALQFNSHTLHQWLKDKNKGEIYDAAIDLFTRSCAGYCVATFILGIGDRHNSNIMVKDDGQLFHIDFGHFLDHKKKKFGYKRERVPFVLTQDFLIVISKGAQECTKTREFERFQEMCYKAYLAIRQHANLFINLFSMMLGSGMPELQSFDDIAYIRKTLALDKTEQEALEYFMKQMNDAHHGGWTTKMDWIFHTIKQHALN
T2 sequence (P27986 whole entry partner): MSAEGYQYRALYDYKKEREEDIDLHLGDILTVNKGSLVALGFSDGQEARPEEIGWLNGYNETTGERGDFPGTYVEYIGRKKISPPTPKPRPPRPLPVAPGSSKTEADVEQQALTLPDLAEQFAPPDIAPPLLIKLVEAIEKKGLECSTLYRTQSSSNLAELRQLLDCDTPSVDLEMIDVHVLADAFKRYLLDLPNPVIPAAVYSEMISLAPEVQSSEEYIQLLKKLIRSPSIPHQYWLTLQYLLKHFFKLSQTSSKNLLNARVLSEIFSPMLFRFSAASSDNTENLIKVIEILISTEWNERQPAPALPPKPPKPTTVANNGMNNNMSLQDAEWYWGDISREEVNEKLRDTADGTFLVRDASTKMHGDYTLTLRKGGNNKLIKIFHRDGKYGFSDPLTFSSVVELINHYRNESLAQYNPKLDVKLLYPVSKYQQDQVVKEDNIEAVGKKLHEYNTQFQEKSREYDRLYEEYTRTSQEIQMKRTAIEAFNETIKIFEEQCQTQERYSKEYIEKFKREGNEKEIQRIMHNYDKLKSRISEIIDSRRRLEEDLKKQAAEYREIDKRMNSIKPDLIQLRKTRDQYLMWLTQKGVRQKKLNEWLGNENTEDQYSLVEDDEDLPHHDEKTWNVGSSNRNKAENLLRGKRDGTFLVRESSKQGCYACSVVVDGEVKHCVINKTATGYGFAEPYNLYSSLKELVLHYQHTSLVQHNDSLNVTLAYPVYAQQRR
T1 sequence (O00329 whole entry): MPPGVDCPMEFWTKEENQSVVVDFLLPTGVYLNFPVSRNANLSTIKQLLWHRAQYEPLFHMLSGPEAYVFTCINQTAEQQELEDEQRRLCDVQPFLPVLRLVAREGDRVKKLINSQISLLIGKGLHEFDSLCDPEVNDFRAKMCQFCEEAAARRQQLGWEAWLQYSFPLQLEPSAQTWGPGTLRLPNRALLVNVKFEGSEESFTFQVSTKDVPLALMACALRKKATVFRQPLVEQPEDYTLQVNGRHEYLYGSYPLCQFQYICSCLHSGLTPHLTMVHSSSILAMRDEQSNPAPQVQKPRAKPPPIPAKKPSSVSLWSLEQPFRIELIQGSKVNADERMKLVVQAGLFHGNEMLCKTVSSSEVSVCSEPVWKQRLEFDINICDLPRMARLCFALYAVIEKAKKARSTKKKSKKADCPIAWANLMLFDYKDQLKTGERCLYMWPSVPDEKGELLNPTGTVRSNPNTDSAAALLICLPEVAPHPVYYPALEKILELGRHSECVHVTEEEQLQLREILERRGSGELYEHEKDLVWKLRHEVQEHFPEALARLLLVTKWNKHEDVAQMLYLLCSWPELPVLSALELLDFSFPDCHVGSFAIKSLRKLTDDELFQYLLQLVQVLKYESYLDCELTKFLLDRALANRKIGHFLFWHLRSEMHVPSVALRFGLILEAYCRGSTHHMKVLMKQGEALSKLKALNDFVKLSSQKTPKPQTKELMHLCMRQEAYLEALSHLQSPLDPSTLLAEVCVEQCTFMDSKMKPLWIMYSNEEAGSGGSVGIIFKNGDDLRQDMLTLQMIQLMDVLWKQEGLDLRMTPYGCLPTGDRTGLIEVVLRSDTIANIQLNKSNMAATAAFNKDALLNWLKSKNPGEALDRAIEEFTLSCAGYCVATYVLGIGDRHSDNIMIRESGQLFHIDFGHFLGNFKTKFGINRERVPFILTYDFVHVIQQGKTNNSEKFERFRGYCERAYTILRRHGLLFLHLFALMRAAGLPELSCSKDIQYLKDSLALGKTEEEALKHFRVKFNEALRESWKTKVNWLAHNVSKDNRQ
T1 sequence (P27986 whole entry partner): as the sequence (P27986 whole entry partner) above

Regarding `COc1c(OC[C@@H](O)CN2CCOCC2)ccc2c(=O)n(C)c(NC(=O)c3cnc(N)nc3)nc12` [8a-27, (S)-2-amino-N-(7-(2-hydroxy-3-morpholinopropoxy)-8-methoxy-3-methyl-4-oxo-3,4-dihydroquinazolin-2-yl) pyrimidine-5-carboxamide], the IC50 in data set [1] was 20 to 200 nM; in [2] (setting [11]), 20 to 200 nM; in data set [3] (setting [12]), 20 to 200 nM; in data set [4] it was 200 to 1000 nM; in data set [5], less than 20 nM; in [6] (setting [13]) it was less than 20 nM. Further, the “Selectivity (PI3Kδ IC50/PI3KαIC50)” value in data set [5] was “II (“II” represents 5-10 times)”. For the same compound, in data set [7], the “tumor growth inhibitory activity” value is “strong tumor growth inhibitory activity”.

Regarding `COc1c(OC[C@H](O)CN2CCOCC2)ccc2c(=O)n(C)c(NC(=O)c3cnc(N)nc3)nc12` [8a-28, (R)-2-amino-N-(7-(2-hydroxy-3-morpholinopropoxy)-8-methoxy-3-methyl-4-oxo-3,4-dihydroquinazolin-2-yl) pyrimidine-5-carboxamide], the IC50 was 20 to 200 nM in data set [1]; 20 to 200 nM in data set [2] (setting [11]); 20 to 200 nM in [3] (setting [12]); 200 to 1000 nM in data set [4]; less than 20 nM in data set [5]; less than 20 nM in [6] (setting [13]). In addition, in data set [5], the “Selectivity (PI3Kδ IC50/PI3KαIC50)” value was “II (“II” represents 5-10 times)”. For the same compound, the “tumor growth inhibitory activity” value in [7] is given as “strong tumor growth inhibitory activity”.

What is called Vd is a proportionality between amount in the body and measured concentration, not a real space. Low values mean little distribution into tissue, high ones wide distribution into tissue. As a reminder, the clearance is a measure of how efficiently the substance is removed, as volume per time. A low value points to inefficient removal. As a reminder, the half-life is the time needed for the level to fall by half in the phase considered. A low value points to rapid decline. Turning to `COc1c(OCCCN2CCOCC2)ccc2c1N=C(NC(=O)c1cnc(N)nc1)N1CCN=C21` [Copanlisib, reference compound], the IC50 in data set [2] (KPL4, read-out: KPL4 (PIK3CA mut) proliferation IC50) is less than 20 nM; in data set [3] (SW48, read-out: SW48 (PIK3CA mut) proliferation IC50), less than 20 nM; in [4], less than 20 nM; in data set [6] (MCF7, read-out: MCF7 (PIK3CA mut) proliferation IC50) it was less than 20 nM. In addition, the volume of distribution in data set [8] is on record as 32.6 L/kg. The compound also gave a Vd in data set [9] of 33.5 L/kg. The compound further gave a clearance in [9] of 36.7 mL/min/kg. The same compound had a half-life in [9] of 8.9 h.

On to `CC[C@H](Nc1ncnc2[nH]cnc12)c1nc2cccc(F)c2c(=O)n1-c1ccccc1` [Idelalisib], for which the liver side effect entry in [10] was “elevated transaminase”.
